# Reference: patent US20240058450A1, “BCL-XL Inhibitory Compounds Having Low Cell Permeability and Antibody Drug Conjugates Including the Same” (AbbVie Inc., priority 2014, published 2024)
# Like-named read-outs stand apart in the source and are kept apart here.
# How the values were obtained:
# Bcl-xL = Bcl-xL (Homo sapiens, UniProt Q07817); experiment: Time Resolved-Fluorescence Resonance Energy Transfer (TR-FRET) binding assay, competition with probe F-Bak
# Outline: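 TR-FRET binding assay run at room temperature for 2 h after mixing compound with Bcl-xL protein, F-Bak probe and Tb-labelled antibody. Test compounds diluted from a 2× 50 μM stock. Ki values derived via Wang's equation from 520/495 nm emission under 340 nm excitation, in the absence of serum or with 1% HS.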
# [1] = system: Molt-4 human acute lymphoblastic leukemia cells; experiment: Molt-4 cell viability assay (CellTiter-Glo, 48 hours, 10% HS); type: cell-based; details: non-permeabilized cells
# Outline: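 Cells were seeded at 12,500 per well in medium with 10% human serum and exposed to a 3-fold compound dilution series from 10 μM to 0.0005 μM. After 48 h, viable cells were quantified by CellTiter-Glo luminescence. Each concentration was run in duplicate on at least 3 occasions.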
# [2] = system: permeabilized Bcl-xL dependent Molt-4 cells; experiment: Cytochrome C release in selectively (digitonin) permeabilized Molt-4 cells; type: cell-based, human; details: 4 h treatment, read-out: Molt-4 Permeabilized Cyt C Release
# Description: The permeabilization of the mitochondrial outer membrane to release proteins from the intermembrane space into the cytosol is a pivotal event in the process of apoptosis. Specifically, the release of cytochrome C triggers the formation of the apoptosome which, in turn, results in caspase activation and other events that will commit the cell to undergo programmed cell death (Goldstein el al., 2005, Cell Death and Differentiation 12:453). The process of mitochondrial outer membrane permeabilization (MOMP) is controlled by the Bcl-2 family members. It is promoted by the multidomain pro-apoptotic proteins Bax and Bak which, upon activation, oligomerize on the outer mitochondrial membrane and form pores to ultimately release cytochrome C. This action is antagonized by the antiapoptotic members, including Bcl-2 and Bcl-xL. Compounds that are capable of inhibiting Bcl-2 or Bcl-xL, for example, in cells that depend upon these proteins for survival, can cause activation of Bax and or Bak, MOMP, release of cytochrome C and the mentioned downstream steps in the apoptotic process. This process of cytochrome C release can be measured in cells via Western blot of both mitochrondrial and cytosolic fractions, and can be used a proxy measurement of apoptosis in cells.
# As a means of detecting the ability of a Bcl-xL inhibitor with low cell-permeability to cause release of cytochrome C, the cells can be treated with an agent that causes selective pore formation in the plasma membrane, but not the mitochondrial membrane. Specifically, the cholesterol/phospholipid ratio is much higher in the plasma membrane than the mitochondrial membrane. […] This agent forms insoluble complexes with cholesterol leading to the segregation of cholesterol from its normal phospholipid binding sites. This action, in turn, leads to the formation of holes about 40-50 Å wide in the lipid bilayer. Once the plasma membrane is permeabilized, cytosolic components able to pass over digitonin-formed holes can be washed out, including the cytochrome C that was released from mitochondria to cytosol in the apoptotic cells ((Campos, 2006, Cytometry A 69(6):515-523)).
# To determine if Bcl-xL inhibitors were inducing cell death through apoptosis, cytochrome C release was measured in Bcl-xL dependent Molt-4 cells following treatment Specifically, 1×10^6 cells were treated for 4 h (37° C., 5% CO2) with the test compounds in half-log dilutions starting at 3.0 μM and ending at 0.01 μM. Cells were then processed as described in Chen et al., 2011, Mol. Cancer Ther. 10:2340-2350 (the Bcl-2/Bcl-X(L)/Bcl-w inhibitor, navitoclax, enhances the activity of chemotherapeutic agents in vitro and in vivo.).
# [3] = in the presence of 1% HS, read-out: Bcl-xL Binding Ki (nM, 1% HS)
# [4] = without HS, read-out: Bcl-xL Binding Ki
# Chain of Bcl-xL (Q07817 whole entry): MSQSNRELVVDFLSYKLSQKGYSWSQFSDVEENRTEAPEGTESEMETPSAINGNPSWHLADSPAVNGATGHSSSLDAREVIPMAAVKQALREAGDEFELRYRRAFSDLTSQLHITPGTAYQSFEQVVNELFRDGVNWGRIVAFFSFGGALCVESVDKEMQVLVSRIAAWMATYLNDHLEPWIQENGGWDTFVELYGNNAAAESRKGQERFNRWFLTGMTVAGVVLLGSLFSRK
Structure (SMILES),Ki (Bcl-xL; [3]) [nM],Ki (Bcl-xL; [4]) [nM],"EC50 ([1]; Homo sapiens, MOLT-4, 48 h) [nM]","EC50 ([2]; Homo sapiens, MOLT-4, 4 h) [nM]",EC50 [1] [nM],EC50 [2] [nM]
"Cc1c(-c2ccc(N3CCc4cccc(C(=O)Nc5nc6ccccc6s5)c4C3)nc2C(=O)O)cnn1CC12CC3(C)CC(C)(C1)CC(OCCN(C)C(=O)[C@@H](N)CS(=O)(=O)O)(C3)C2 [Example 1.13, 6-[8-(1,3-benzothiazol-2-ylcarbamoyl)-3,4-dihydroisoquinolin-2 (1H)-yl]-3-{1-[(3,5-dimethyl-7-{2-[methyl(3-sulfo-L-alanyl)amino]ethoxy}tricyclo[3.3.1.1^3,7]dec-1-yl)methyl]-5-methyl-1H-pyrazol-4-yl}pyridine-2-carboxylic acid]",0.2,< 0.001,257,< 0.5,–,–
"Cc1c(-c2ccc(N3CCc4cccc(C(=O)Nc5nc6ccccc6s5)c4C3)nc2C(=O)O)cnn1CC12CC3(C)CC(C)(C1)CC(OCCNCCCP(=O)(O)O)(C3)C2 [Example 1.14, 6-[8-(1,3-benzothiazol-2-ylcarbamoyl)-3,4-dihydroisoquinolin-2 (1H)-yl]-3-{1-[(3,5-dimethyl-7-{2-[(3-phosphonopropyl)amino]ethoxy)tricyclo[3.3.1.1^3,7]dec-1-yl)methyl]-5-methyl-1H-pyrazol-4-yl}pyridine-2-carboxylic acid]",0.18,< 0.001,415,< 0.5,–,–
"Cc1c(-c2ccc(N3CCc4cccc(C(=O)Nc5nc6ccccc6s5)c4C3)nc2C(=O)O)cnn1CC12CC3(C)CC(C)(C1)CC(OCCNC(=O)[C@@H](N)CS(=O)(=O)O)(C3)C2 [Example 1.15, 6-[8-(1,3-benzothiazol-2-ylcarbamoyl)-3,4-dihydroisoquinolin-2 (1H)-yl]-3-{1-[(3,5-dimethyl-7-{2-[(3-sulfo-L-alanyl)amino]ethoxy}tricyclo[3.3.1.1^3,7]dec-1-yl)methyl]-5-methyl-1H-pyrazol-4-yl}pyridine-2-carboxylic acid]",0.39,0.003,663,1 to 5,–,–
"Cc1c(-c2ccc(N3CCc4cccc(C(=O)Nc5nc6ccccc6s5)c4C3)nc2C(=O)O)cnn1CC12CC3(C)CC(C)(C1)CC(OCCN(CCOCCOCCN)Cc1ccc(CC4O[C@H](C(=O)O)[C@@H](O)[C@H](O)[C@H]4O)cc1)(C3)C2 (stereo partly drawn) [Example 1.18, 6-{4-[({2-[2-(2-aminoethoxy)ethoxy]ethyl}[2-({3-[(4-{6-[8-(1,3-benzothiazol-2-ylcarbamoyl)-3,4-dihydroisoquinolin-2 (1H)-yl]-2-carboxypyridin-3-yl}-5-methyl-1H-pyrazol-1-yl)methyl]-5,7-dimethyltricyclo[3.3.1.1^3,7]dec-1-yl}oxy)ethyl]amino)methyl]benzyl}-2,6-anhydro-L-gulonic acid]",1.38,< 0.001,–,1 to 5,3330,< 0.5
"Cc1c(-c2ccc(-c3ccc4c(c3)N(C(=O)Nc3nc5ccccc5s3)CCC4)nc2C(=O)O)cnn1CC12CC3(C)CC(C)(C1)CC(OCCNCCP(=O)(O)O)(C3)C2 [Example 1.20, 6-[1-(1,3-benzothiazol-2-ylcarbamoyl)-1,2,3,4-tetrahydroquinolin-7-yl]-3-{1-[(3,5-dimethyl-7-(2-[(2-phosphonoethyl)amino]ethoxy}tricyclo[3.3.1.1^3,7]dec-1-yl)methyl]-5-methyl-1H-pyrazol-4-yl}pyridine-2-carboxylic acid]",0.47,< 0.001,774,< 0.5,–,–
"Cc1c(-c2ccc(N3CCc4cccc(C(=O)Nc5nc6cccnc6s5)c4C3)nc2C(=O)O)cnn1CC12CC3(C)CC(C)(C1)CC(OCCNCCS(=O)(=O)O)(C3)C2 [Example 1.22, 3-{1-[(3,5-dimethyl-7-{2-[(2-sulfoethyl)amino]ethoxy}tricyclo[3.3.1.1^3,7]dec-1-yl)methyl]-5-methyl-1H-pyrazol-4-yl}-6-[8-([1,3]thiazolo[5,4-b]pyridin-2-ylcarbamoyl)-3,4-dihydroisoquinolin-2 (1H)-yl]pyridine-2-carboxylic acid]",7.11,0.006,> 10000,< 0.5,–,–
"Cc1c(-c2ccc(-c3ccc4c(c3)N(C(=O)Nc3nc5ccccc5s3)CCC4)nc2C(=O)O)cnn1CC12CC3(C)CC(C)(C1)CC(OCCNCCS(=O)(=O)O)(C3)C2 [Example 1.24, 6-[1-(1,3-benzothiazol-2-ylcarbamoyl)-1,2,3,4-tetrahydroquinolin-7-yl]-3-{1-[(3,5-dimethyl-7-{2-[(2-sulfoethyl)amino]ethoxy}tricyclo[3.3.1.1^3,7]dec-1-yl)methyl]-5-methyl-1H-pyrazol-4-yl}pyridine-2-carboxylic acid]",0.074,< 0.001,390,< 0.5,–,–
"Cc1c(-c2ccc(N3CCc4cccc(C(=O)Nc5nc6ccccc6s5)c4C3)nc2C(=O)O)cnn1CC12CC3(C)CC(C)(C1)CC(OCCNCCC(=O)O)(C3)C2 [Example 1.25, 6-[8-(1,3-benzothiazol-2-ylcarbamoyl)-3,4-dihydroisoquinolin-2 (1H)-yl]-3-{1-[(3-{2-[(2-carboxyethyl)amino]ethoxy}-5,7-dimethyltricyclo[3.3.1.1^3,7]dec-1-yl)methyl]-5-methyl-1H-pyrazol-4-yl)pyridine-2-carboxylic acid]",0.083,< 0.001,430,< 0.5,–,–
"Cc1c(-c2ccc(N3CCc4cccc(C(=O)Nc5nc6ccccc6s5)c4C3)nc2C(=O)O)cnn1CC12CC3(C)CC(C)(C1)CC(OCCN(CCCP(=O)(O)O)C1CCNCC1)(C3)C2 [Example 1.26, 6-[8-(1,3-benzothiazol-2-ylcarbamoyl)-3,4-dihydroisoquinolin-2 (1H)-yl]-3-{1-[(3,5-dimethyl-7-{2-[(3-phosphonopropyl)(piperidin-4-yl)amino]ethoxy}tricyclo[3.3.1.1^3,7]dec-1-yl)methyl]-5-methyl-1H-pyrazol-4-yl}pyridine-2-carboxylic acid]",0.11,< 0.001,2330,< 0.5,–,–
"Cc1c(-c2ccc(N3CCc4cccc(C(=O)Nc5nc6ccccc6s5)c4C3)nc2C(=O)O)cnn1CC12CC3(C)CC(C)(C1)CC(OCCN(C)C(=O)[C@@H](N)CCCC[N+](C)(C)C)(C3)C2 [Example 1.29, N-[(5S)-5-amino-6-{[2-({3-[(4-{6-[8-(1,3-benzothiazol-2-ylcarbamoyl)-3,4-dihydroisoquinolin-2 (1H)-yl]-2-carboxypyridin-3-yl}-5-methyl-1H-pyrazol-1-yl)methyl]-5,7-dimethyltricyclo[3.3.1.1^3,7]dec-1-yl}oxy)ethyl](methyl)amino}-6-oxohexyl]-N,N-dimethylmethanaminium]",0.033,0.009,–,–,935,< 0.5
"Cc1c(-c2ccc(N3CCc4cccc(C(=O)Nc5nc6ccccc6s5)c4C3)nc2C(=O)O)cnn1CC12CC3(C)CC(C)(C1)CC(OCCNC(=O)[C@H](CC(=O)O)NCCC(=O)O)(C3)C2 [Example 1.32, 6-[8-(1,3-benzothiazol-2-ylcarbamoyl)-3,4-dihydroisoquinolin-2 (1H)-yl]-3-(1-{[3-(2-{[N-(2-carboxyethyl)-L-alpha-aspartyl]amino}ethoxy)-5,7-dimethyltricyclo[3.3.1.1^3,7]dec-1-yl]methyl}-5-methyl-1H-pyrazol-4-yl}pyridine-2-carboxylic acid]",0.28,< 0.001,708,< 0.5,–,–
"Cc1c(-c2ccc(N3CCc4cccc(C(=O)Nc5nc6ccccc6s5)c4C3)nc2C(=O)O)cnn1CC12CC3(C)CC(C)(C1)CC(OCCN(CCNCCC(=O)O)CCS(=O)(=O)O)(C3)C2 [Example 1.38, 6-[8-(1,3-benzothiazol-2-ylcarbamoyl)-3,4-dihydroisoquinolin-2 (1H)-yl]-3-{1-[(3-{2-[{2-[(2-carboxyethyl)amino]ethyl}(2-sulfoethyl)amino]ethoxy}-5,7-dimethyltricyclo[3.3.1.1^3,7]dec-1-yl)methyl]-5-methyl-1H-pyrazol-4-yl}pyridine-2-carboxylic acid]",0.203,< 0.001,245,< 0.5,–,–
